The Ki is a measure of affinity in units of concentration, obtained from inhibition or displacement.

In one assay the target is MAO-B (Homo sapiens (Human), UniProt P27338). The settings on record: read-out: MAO-B (Ki).
In assay [1] the target is Human recombinant LSD1 protein (Homo sapiens (Human), UniProt O60341). The assay is described as follows: biochemical.
Source text: The ability of the compounds of the invention to inhibit LSD1 can be tested as follows. Human recombinant LSD1 protein was purchased from BPS Bioscience Inc. In order to monitor LSD1 enzymatic activity and/or its inhibition rate by our inhibitor(s) of interest, di-methylated H3-K4 peptide (Millipore) was chosen as a substrate. The demethylase activity was estimated, under aerobic conditions, by measuring the release of H2O2 produced during the catalytic process, using the Amplex® Red peroxide/peroxidase-coupled assay kit (Invitrogen).
Within the experiment, each concentration of inhibitor was tested in triplicate. […] The enzymatic reactions were set up in a 50 mM sodium phosphate, pH 7.4 buffer. At the end of the incubation, Amplex® Red reagent and horseradish peroxidase (HPR) solution were added to the reaction according to the recommendations provided by the supplier (Invitrogen), and left to incubate for 30 extra minutes at room temperature in the dark. A 1 μM H2O2 solution was used as a control of the kit efficiency.
The Ki (IC50) of each inhibitor was estimated at half of the maximum activity.
The next assay deals with MAO-A (Homo sapiens (Human), UniProt P21397). The note with it: read-out: MAO-A (Ki).

Molecules are shown by their SMILES. Structures can show the parent of a compound that is named as a salt.

Chain of MAO-B (P27338 whole entry): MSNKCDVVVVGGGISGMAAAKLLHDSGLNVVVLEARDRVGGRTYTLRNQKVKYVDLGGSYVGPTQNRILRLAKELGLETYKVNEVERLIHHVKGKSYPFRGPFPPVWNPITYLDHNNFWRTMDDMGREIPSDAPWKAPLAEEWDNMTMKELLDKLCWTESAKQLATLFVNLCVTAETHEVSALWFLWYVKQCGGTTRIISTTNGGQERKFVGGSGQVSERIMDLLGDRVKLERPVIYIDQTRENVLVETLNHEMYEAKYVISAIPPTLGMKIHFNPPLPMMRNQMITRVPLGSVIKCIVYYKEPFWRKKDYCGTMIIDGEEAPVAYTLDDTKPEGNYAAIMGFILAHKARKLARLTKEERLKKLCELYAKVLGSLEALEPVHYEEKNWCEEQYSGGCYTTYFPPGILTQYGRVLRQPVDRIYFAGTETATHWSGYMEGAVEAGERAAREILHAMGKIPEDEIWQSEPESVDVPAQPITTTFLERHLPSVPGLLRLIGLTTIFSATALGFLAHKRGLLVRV
Chain of MAO-A (P21397 whole entry): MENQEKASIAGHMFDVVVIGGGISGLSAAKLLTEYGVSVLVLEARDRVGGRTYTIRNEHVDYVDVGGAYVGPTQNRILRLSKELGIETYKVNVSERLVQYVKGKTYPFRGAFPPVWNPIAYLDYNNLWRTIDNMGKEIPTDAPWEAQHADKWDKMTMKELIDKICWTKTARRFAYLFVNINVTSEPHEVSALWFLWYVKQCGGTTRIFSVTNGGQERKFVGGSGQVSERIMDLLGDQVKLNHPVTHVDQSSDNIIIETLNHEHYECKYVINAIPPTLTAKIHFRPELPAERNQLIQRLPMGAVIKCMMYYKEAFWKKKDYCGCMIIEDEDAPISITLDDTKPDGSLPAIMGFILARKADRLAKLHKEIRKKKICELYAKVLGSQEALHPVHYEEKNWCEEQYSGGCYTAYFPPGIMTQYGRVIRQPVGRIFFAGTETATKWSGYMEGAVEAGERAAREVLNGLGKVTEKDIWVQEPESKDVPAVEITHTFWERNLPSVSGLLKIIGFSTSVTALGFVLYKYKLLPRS

Turning to `N[C@H]1C[C@@H]1c1ccc(-c2cc(O)cc(F)c2)nc1` (relative stereo) [Example 24, 3-(5-((trans)-2-aminocyclopropyl)pyridin-2-yl)-5-fluorophenol hydrochloride], the Ki on MAO-B lay within 1000 to 40000 nM; in assay [1], 1 to 100 nM; on MAO-A it was 1000 to 40000 nM.
Turning to `Cc1nc(-c2cccc(C(F)(F)F)c2)ccc1[C@H]1C[C@@H]1N` (relative stereo) [Example 80, (trans)-2-(2-methyl-6-(3-(trifluoromethyl)phenyl)pyridin-3-yl)cyclopropanamine hydrochloride], the Ki lay within 1000 to 40000 nM at MAO-B, 100 to 1000 nM in assay [1] and 1000 to 40000 nM on MAO-A.
Take `N[C@H]1C[C@@H]1c1ccc(-c2ccc(O)cc2)cc1` (relative stereo) [Example 3, 4′-((trans)-2-aminocyclopropyl)biphenyl-4-ol hydrochloride]: the Ki was 1000 to 40000 nM on MAO-B, 100 to 1000 nM in assay [1] and 1000 to 40000 nM on MAO-A.
Turning to `Cc1cccc(-c2ccc([C@H]3C[C@@H]3N)cn2)c1` (relative stereo) [Example 15, (Trans)-2-(6-m-tolylpyridin-3-yl)cyclopropanamine hydrochloride], the Ki fell in the range of 1000 to 40000 nM on MAO-B, 100 to 1000 nM in assay [1] and 1000 to 40000 nM on MAO-A.
Turning to `COc1cc(-c2ccc([C@H]3C[C@@H]3N)cn2)cc(F)c1F` (relative stereo) [Example 58, (Trans)-2-(6-(3,4-difluoro-5-methoxyphenyl)pyridin-3-yl)cyclopropanamine hydrochloride], the results for the Ki (at MAO-B; in assay [1]; at MAO-A) were 1000 to 40000 nM, 100 to 1000 nM and 1000 to 40000 nM, respectively.
On to `COc1ccc(Cl)c(-c2ccc([C@H]3C[C@@H]3N)cn2)c1` (relative stereo) [Example 43, (trans)-2-(6-(2-chloro-5-methoxyphenyl)pyridin-3-yl)cyclopropanamine hydrochloride], for which the Ki at MAO-B was in the range of 1000 to 40000 nM; in assay [1], 100 to 1000 nM; on MAO-A, 1000 to 40000 nM.
Consider `N#Cc1ccc(-c2ccc([C@H]3C[C@@H]3N)cn2)s1` (relative stereo) [Example 56, 5-(5-((trans)-2-aminocyclopropyl)pyridin-2-yl)thiophene-2-carbonitrile hydrochloride], for which the figures for the Ki (on MAO-B; in assay [1]; on MAO-A) were 1000 to 40000 nM, 1 to 100 nM and 1000 to 40000 nM, respectively.
For the compound `N[C@H]1C[C@@H]1c1ccc(-c2cccc(O)c2F)nc1` (relative stereo) [Example 26, 3-(5-((trans)-2-aminocyclopropyl)pyridin-2-yl)-2-fluorophenol hydrochloride], the Ki fell in the range of 1000 to 40000 nM at MAO-B, 100 to 1000 nM in assay [1] and 1000 to 40000 nM at MAO-A.
For `COc1ccc(F)c(-c2ccc([C@H]3C[C@@H]3N)cn2)c1` (relative stereo) [Example 40, (trans)-2-(6-(2-fluoro-5-methoxyphenyl)pyridin-3-yl)cyclopropanamine hydrochloride], the Ki at MAO-B lay in the range of 1000 to 40000 nM; in assay [1], 100 to 1000 nM; on MAO-A it was 1000 to 40000 nM.
Consider `N[C@H]1C[C@@H]1c1ccc(-c2ccc3sccc3c2)nc1` (relative stereo) [Example 34, (trans)-2-(6-(benzo[b]thiophen-5-yl)pyridin-3-yl)cyclopropanamine hydrochloride], for which the Ki on MAO-B is 1000 to 40000 nM; in assay [1], 100 to 1000 nM; on MAO-A it was 1000 to 40000 nM.
As to `N[C@H]1C[C@@H]1c1ccc(-c2cccc(O)c2)cc1` (relative stereo) [Example 4, 4′-((trans)-2-aminocyclopropyl)biphenyl-3-ol hydrochloride], the Ki at MAO-B is 1000 to 40000 nM; in assay [1] it was 1 to 100 nM; on MAO-A it was 1000 to 40000 nM.
For the compound `N#Cc1ccc(-c2ccc([C@H]3C[C@@H]3N)cn2)cc1` (relative stereo) [Example 12, 4-(5-((trans)-2-aminocyclopropyl)pyridin-2-yl)benzonitrile dihydrochloride], the Ki lay in the range of 1000 to 40000 nM on MAO-B, 100 to 1000 nM in assay [1] and 1000 to 40000 nM at MAO-A.
Consider `CS(=O)(=O)Nc1cc(-c2ccc([C@H]3C[C@@H]3N)cn2)ccc1F` (relative stereo) [Example 97, N-(5-(5-((trans)-2-aminocyclopropyl)pyridin-2-yl)-2-fluorophenyl)methanesulfonamide hydrochloride], for which the Ki lay within 1000 to 40000 nM on MAO-B, 100 to 1000 nM in assay [1] and 1000 to 40000 nM at MAO-A.
Turning to `N[C@H]1C[C@@H]1c1ccc(-c2ccc(O)cc2)nc1` (relative stereo) [Example 16, 4-(5-((trans)-2-aminocyclopropyl)pyridin-2-yl)phenol hydrochloride], the Ki on MAO-B is 1000 to 40000 nM; in assay [1] it was 100 to 1000 nM; at MAO-A, 1000 to 40000 nM.
With `N[C@H]1C[C@@H]1c1ccc(-c2cccc(C(F)(F)F)c2)nc1Cl` (relative stereo) [Example 76, (trans)-2-(2-chloro-6-(3-(trifluoromethyl)phenyl)pyridin-3-yl)cyclopropanamine hydrochloride], the Ki on MAO-B lay in the range of 1000 to 40000 nM; in assay [1], 100 to 1000 nM; on MAO-A it was 1000 to 40000 nM.
On to `N[C@H]1C[C@@H]1c1ccc(-c2cc(C(F)(F)F)ccc2Cl)nc1` (relative stereo) [Example 50, (trans)-2-(6-(2-chloro-5-(trifluoromethyl)phenyl)pyridin-3-yl)cyclopropanamine hydrochloride], for which the figures for the Ki (on MAO-B; in assay [1]; on MAO-A) were 1000 to 40000 nM, 100 to 1000 nM and 1000 to 40000 nM, respectively.
As to `N[C@H]1C[C@@H]1c1ccc(-c2cccc(C(F)(F)F)c2)cc1` (relative stereo) [Example 1, (trans)-2-(3′-(trifluoromethyl)biphenyl-4-yl)cyclopropanamine hydrochloride], the inhibition constant (Ki) on MAO-B fell in the range of 1000 to 40000 nM; in assay [1] it was 100 to 1000 nM; on MAO-A, 1000 to 40000 nM.
Take `N[C@H]1C[C@@H]1c1ccc(-c2cc3ccccc3s2)nc1` (relative stereo) [Example 54, (trans)-2-(6-(benzo[b]thiophen-2-yl)pyridin-3-yl)cyclopropanamine hydrochloride]: the Ki was 1000 to 40000 nM at MAO-B, 100 to 1000 nM in assay [1] and 1000 to 40000 nM on MAO-A.
As to `COc1cc(-c2ccc([C@H]3C[C@@H]3N)cn2)ccc1F` (relative stereo) [Example 38, (trans)-2-(6-(4-fluoro-3-methoxyphenyl)pyridin-3-yl)cyclopropanamine hydrochloride], the figures for the inhibition constant Ki (on MAO-B; in assay [1]; at MAO-A) were 1000 to 40000 nM, 100 to 1000 nM and 1000 to 40000 nM, respectively.
For the compound `N[C@H]1C[C@@H]1c1ccc(-c2ccc3c(c2)NC(=O)C3)nc1` (relative stereo) [Example 62, 6-(5-((trans)-2-aminocyclopropyl)pyridin-2-yl)indolin-2-one hydrochloride], the Ki was in the range of 1000 to 40000 nM on MAO-B, 100 to 1000 nM in assay [1] and 1000 to 40000 nM on MAO-A.
Take `COc1cc(F)cc(-c2ccc([C@H]3C[C@@H]3N)cn2)c1` (relative stereo) [Example 39, (trans)-2-(6-(3-fluoro-5-methoxyphenyl)pyridin-3-yl)cyclopropanamine hydrochloride]: the inhibition constant (Ki) on MAO-B was in the range of 1000 to 40000 nM; in assay [1] it was 100 to 1000 nM; on MAO-A, 1000 to 40000 nM.
In the case of `CC(C)S(=O)(=O)Nc1cccc(-c2ccc([C@H]3C[C@@H]3N)cn2)c1` (relative stereo) [Example 65, N-(3-(5-((trans)-2-aminocyclopropyl)pyridin-2-yl)phenyl)propane-2-sulfonamide hydrochloride], the Ki lay in the range of 1000 to 40000 nM on MAO-B, 1 to 100 nM in assay [1] and 1000 to 40000 nM on MAO-A.
Consider `COc1cccc(-c2ccc([C@H]3C[C@@H]3N)cn2)c1F` (relative stereo) [Example 41, (trans)-2-(6-(2-fluoro-3-methoxyphenyl)pyridin-3-yl)cyclopropanamine hydrochloride], for which the inhibition constant Ki lay within 1000 to 40000 nM on MAO-B, 100 to 1000 nM in assay [1] and 1000 to 40000 nM at MAO-A.
Consider `COc1ccc(C#N)cc1-c1ccc([C@H]2C[C@@H]2N)cn1` (relative stereo) [Example 72, 3-(5-((trans)-2-aminocyclopropyl)pyridin-2-yl)-4-methoxybenzonitrile hydrochloride], for which the inhibition constant (Ki) was in the range of 1000 to 40000 nM at MAO-B, 100 to 1000 nM in assay [1] and 1000 to 40000 nM at MAO-A.
In the case of `N[C@H]1C[C@@H]1c1ccc(-c2cc(O)ccc2F)nc1` (relative stereo) [Example 25, 3-(5-((trans)-2-aminocyclopropyl)pyridin-2-yl)-4-fluorophenol hydrochloride], the Ki was in the range of 1000 to 40000 nM on MAO-B, 1 to 100 nM in assay [1] and 1000 to 40000 nM at MAO-A.
`N[C@H]1C[C@@H]1c1ccc(-c2csc3ccccc23)nc1` (relative stereo) [Example 55, (trans)-2-(6-(benzo[b]thiophen-3-yl)pyridin-3-yl)cyclopropanamine hydrochloride]: the Ki at MAO-B fell in the range of 1000 to 40000 nM; in assay [1], 100 to 1000 nM; at MAO-A, 1000 to 40000 nM.
As to `N[C@H]1C[C@@H]1c1ccc(-c2cc(C(F)(F)F)ccc2F)nc1` (relative stereo) [Example 49, (trans)-2-(6-(2-fluoro-5-(trifluoromethyl)phenyl)pyridin-3-yl)cyclopropanamine hydrochloride], the Ki lay within 1000 to 40000 nM at MAO-B, 100 to 1000 nM in assay [1] and 1000 to 40000 nM at MAO-A.
`Cc1cscc1-c1ccc([C@H]2C[C@@H]2N)cn1` (relative stereo) [Example 57, (trans)-2-(6-(4-methylthiophen-3-yl)pyridin-3-yl)cyclopropanamine hydrochloride]: the results for the Ki (on MAO-B; in assay [1]; on MAO-A) were 1000 to 40000 nM, 100 to 1000 nM and 1000 to 40000 nM, respectively.
For the compound `CC(=O)Nc1cccc(-c2ccc([C@H]3C[C@@H]3N)cn2)c1` (relative stereo) [Example 52, N-(3-(5-((trans)-2-aminocyclopropyl)pyridin-2-yl)phenyl)acetamide hydrochloride], the Ki on MAO-B was 1000 to 40000 nM; in assay [1], 100 to 1000 nM; on MAO-A, 1000 to 40000 nM.

The values are drawn from patent publication US9676701B2, “Cyclopropylamine derivatives useful as LSD1 inhibitors” (Oryzon Genomics, S.A., priority 2010, dated 2017).
